# According to patent publication US20240174671A1, “New 2,3-Dihydro-1H-pyrrolo[3,2-b]pyridine Derivatives as Sigma Ligands” (ACONDICIONAMIENTO TARRASENSE, priority 2021, published 2024):
# pKi: −log10 of the molar value. Read-outs that look alike come from different tables or passages of the source.
# Tests used:
# [1] = biological target: T1, human σ2/TMEM97 receptor (Homo sapiens, UniProt Q5BJF2); experiment: Binding assay to human σ2/TMEM97 receptor ([3H]-DTG); details: transfected HEK-293 membranes, 10 nM [3H]-DTG, 25° C., 120 minutes; read-out: Binding σ-[…] (binding to σ2-receptor expressed as Ki)
# T1 construct: expressed in transfected cells; host or cells: HEK-293
# T1 sequence (Q5BJF2 whole entry): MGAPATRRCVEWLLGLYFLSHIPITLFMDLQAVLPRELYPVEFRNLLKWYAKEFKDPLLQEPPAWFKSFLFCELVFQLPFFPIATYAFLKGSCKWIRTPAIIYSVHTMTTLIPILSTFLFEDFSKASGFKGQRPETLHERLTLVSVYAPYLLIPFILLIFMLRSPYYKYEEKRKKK
# Method: Binding Assay to Human σ2/TMEM97 Receptor.
# Transfected HEK-293 membranes (15 μg) were incubated with 10 nM [^3H]-1,3-Di-o-tolylguanidine (DTG) in assay buffer containing Tris-HCl 50 mM at pH 8.0. NSB (non-specific binding) was measured by adding 10 μM haloperidol. The binding of the test compound was measured at either one concentration (% inhibition at 1 or 10 µM) or five different concentrations to determine affinity values (Ki). Plates were incubated at 25° C. for 120 minutes. After the incubation period, the reaction mix was transferred to MultiScreen HTS, FC plates (Millipore), filtered and washed 3 times with ice-cold 10 mM Tris-HCL (pH 8.0). Filters were dried and counted at approximately 40% efficiency in a MicroBeta scintillation counter (Perkin-Elmer) using EcoScint liquid scintillation cocktail.
# [2] = biological target: T2, human σ1 receptor (Homo sapiens, UniProt Q99720); experiment: Human σ1 receptor radioligand assay ([3H](+)-pentazocine); format: binding
# T2 construct: expressed in transfected cells; host or cells: HEK-293
# T2 sequence (Q99720 whole entry): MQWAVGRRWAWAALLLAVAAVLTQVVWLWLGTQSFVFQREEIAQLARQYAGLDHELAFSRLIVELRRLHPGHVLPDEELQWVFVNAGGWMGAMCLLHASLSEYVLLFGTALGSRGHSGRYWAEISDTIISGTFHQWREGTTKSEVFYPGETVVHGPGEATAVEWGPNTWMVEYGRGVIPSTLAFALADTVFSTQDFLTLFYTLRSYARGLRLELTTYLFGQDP
# Method: Human σ1 Receptor Radioligand Assay
# NBS (non-specific binding) was measured by adding 10 μM haloperidol. The binding of the test compound was measured at either one concentration (% inhibition at 1 or 10 µM) or five different concentrations to determine affinity values (Ki). Plates were incubated at 37° C. for 120 minutes. After the incubation period, the reaction mix was then transferred to MultiScreen HTS, FC plates (Millipore), filtered and plates were washed 3 times with ice-cold 10 mM Tris-HCL (pH7.4). Filters were dried and counted at approximately 40% efficiency in a MicroBeta scintillation counter (Perkin-Elmer) using EcoScint liquid scintillation cocktail.
# [3] = transfected HEK-293 membranes, 5 nM [3H](+)-pentazocine, 37° C., 120 minutes, read-out: Binding σ-[…] (binding to σ1-receptor expressed as Ki)
Compound,pKi [1],"pKi [2, 3]",pKi [2]
"CC1(C)CN(C(=O)NC2CCN(Cc3ccc(F)c(F)c3)CC2)c2cccnc21 [Example 46, N-(1-(3,4-difluorobenzyl)piperidin-4-yl)-3,3-dimethyl-2,3-dihydro-1H-pyrrolo[3,2-b]pyridine-1-carboxamide]",< 6.00,> 7.00,–
"Cc1ccc2c(n1)C(C)(C)CN2C(=O)NC1CCN(CC2CCOCC2)CC1 [Example 42, 3,3,5-trimethyl-N-(1-((tetrahydro-2H-pyran-4-yl)methyl)piperidin-4-yl)-2,3-dihydro-1H-pyrrolo[3,2-b]pyridine-1-carboxamide]",< 6.00,6.30 to 7.00,–
"Cc1ccc2c(n1)C(C)(C)CN2C(=O)N1CCC2(CCN(CCC(C)C)CC2)C1 [Example 100, (8-isopentyl-2,8-diazaspiro[4.5]decan-2-yl)(3,3,5-trimethyl-2,3-dihydro-1H-pyrrolo[3,2-b]pyridin-1-yl)methanone]",> 7.00,6.00 to 6.30,–
"Cc1nc2c(cc1F)N(C(=O)NC[C@@H](c1ccccc1)N(C)C)CC2(C)C [Example 16, (R)—N-(2-(dimethylamino)-2-phenylethyl)-6-fluoro-3,3,5-trimethyl-2,3-dihydro-1H-pyrrolo[3,2-b]pyridine-1-carboxamide]",< 6.00,> 7.00,–
"CC1(C)CN(C(=O)NCC2CCN(Cc3ccccc3)CC2)c2cccnc21 [Example 69, N-((1-benzylpiperidin-4-yl)methyl)-3,3-dimethyl-2,3-dihydro-1H-pyrrolo[3,2-b]pyridine-1-carboxamide]",6.30 to 7.00,6.30 to 7.00,–
"Cc1ccc2c(n1)C(C)(C)CN2C(=O)NC1CCN(Cc2ccc(C#N)cc2)CC1 [Example 24, N-(1-(4-cyanobenzyl)piperidin-4-yl)-3,3,5-trimethyl-2,3-dihydro-1H-pyrrolo[3,2-b]pyridine-1-carboxamide]",< 6.00,> 7.00,–
"CC1(C)CN(C(=O)N2CCC3(CCN(Cc4ccc(C#N)c(F)c4)CC3)C2)c2cccnc21 [Example 142, 4-((2-(3,3-dimethyl-2,3-dihydro-1H-pyrrolo[3,2-b]pyridine-1-carbonyl)-2,8-diazaspiro[4.5]decan-8-yl)methyl)-2-fluorobenzonitrile]",> 7.00,> 7.00,–
"Cc1ccc2c(n1)C(C)(C)CN2C(=O)NC1CCN(CC(C)C)CC1 [Example 41, N-(1-isobutylpiperidin-4-yl)-3,3,5-trimethyl-2,3-dihydro-1H-pyrrolo[3,2-b]pyridine-1-carboxamide]",< 6.00,6.30 to 7.00,–
"Cc1ccc2c(n1)C(C)(C)CN2C(=O)C1CN(Cc2ccc(F)cc2)C1 [Example 133, (1-(4-fluorobenzyl)azetidin-3-yl)(3,3,5-trimethyl-2,3-dihydro-1H-pyrrolo[3,2-b]pyridin-1-yl)methanone]",< 6.00,> 7.00,–
"CC1(C)CN(C(=O)C2CN(Cc3ccccc3)C2)c2cccnc21 [Example 132, (1-benzylazetidin-3-yl)(3,3-dimethyl-2,3-dihydro-1H-pyrrolo[3,2-b]pyridin-1-yl)methanone]",6.30 to 7.00,> 7.00,–
"CC1(C)CN(C(=O)N2CCC3(CCN(Cc4ccccc4)CC3)C2)c2cccnc21 [Example 89, (8-benzyl-2,8-diazaspiro[4.5]decan-2-yl)(3,3-dimethyl-2,3-dihydro-1H-pyrrolo[3,2-b]pyridin-1-yl)methanone]",> 7.00,> 7.00,–
"CC1(C)CN(C(=O)N2CCC3(CCN(CCC4CCOCC4)CC3)C2)c2cccnc21 [Example 156, (3,3-dimethyl-2,3-dihydro-1H-pyrrolo[3,2-b]pyridin-1-yl)(8-(2-(tetrahydro-2H-pyran-4-yl)ethyl)-2,8-diazaspiro[4.5]decan-2-yl)methanone]",> 7.00,–,6.30 to 7.00
"Cc1ccc2c(n1)C(C)(C)CN2C(=O)N1CCC2(CCN(C3CCOCC3)CC2)C1 [Example 110, (8-(tetrahydro-2H-pyran-4-yl)-2,8-diazaspiro[4.5]decan-2-yl)(3,3,5-trimethyl-2,3-dihydro-1H-pyrrolo[3,2-b]pyridin-1-yl)methanone]",> 7.00,< 6.00,–

# Continued, in another order:
pKi [1],"pKi [2, 3]",Compound,pKi [2]
6.00 to 6.30,< 6.00,"CN(Cc1cc(F)cc(C#N)c1)C1CCN(C(=O)N2CC(C)(C)c3ncccc32)CC1 [Example 76, 3-(((1-(3,3-dimethyl-2,3-dihydro-1H-pyrrolo[3,2-b]pyridine-1-carbonyl)piperidin-4-yl)(methyl)amino)methyl)-5-fluorobenzonitrile]",–
< 6.00,6.00 to 6.30,"Cc1ccc2c(n1)C(C)(C)CN2C(=O)N1CC[C@@H](N(C)Cc2ccccc2)C1 [Example 43, (R)-(3-(benzyl(methyl)amino)pyrrolidin-1-yl)(3,3,5-trimethyl-2,3-dihydro-1H-pyrrolo[3,2-b]pyridin-1-yl)methanone]",–
6.30 to 7.00,> 7.00,"Cc1ccc2c(n1)C(C)(C)CN2C(=O)[C@H]1CN(Cc2ccccc2)C[C@@H]1C [Example 125, ((3R,4R)-1-benzyl-4-methylpyrrolidin-3-yl)(3,3,5-trimethyl-2,3-dihydro-1H-pyrrolo[3,2-b]pyridin-1-yl)methanone]",–
> 7.00,> 7.00,"Cc1ccc2c(n1)C(C)(C)CN2C(=O)[C@H]1CC[C@H](N(C)Cc2cc(F)ccc2F)CC1 [Example 173, ((1r,4r)-4-((2,5-difluorobenzyl)(methyl)amino)cyclohexyl)(3,3,5-trimethyl-2,3-dihydro-1H-pyrrolo[3,2-b]pyridin-1-yl)methanone]",–
6.30 to 7.00,6.30 to 7.00,"Cc1ccc2c(n1)C(C)(C)CN2C(=O)N1CCC2(CC1)CN(Cc1ccccc1)C2 [Example 93, (2-benzyl-2,7-diazaspiro[3.5]nonan-7-yl)(3,3,5-trimethyl-2,3-dihydro-1H-pyrrolo[3,2-b]pyridin-1-yl)methanone]",–
6.30 to 7.00,< 6.00,"CN(Cc1cc(C#N)ccc1F)C1CCN(C(=O)N2CC(C)(C)c3ncccc32)CC1 [Example 77, 3-(((1-(3,3-dimethyl-2,3-dihydro-1H-pyrrolo[3,2-b]pyridine-1-carbonyl)piperidin-4-yl)(methyl)amino)methyl)-4-fluorobenzonitrile]",–
6.00 to 6.30,> 7.00,"Cc1ccc2c(n1)C(C)(C)CN2C(=O)C1CN(Cc2cccc(F)c2)C1 [Example 135, (1-(3-fluorobenzyl)azetidin-3-yl)(3,3,5-trimethyl-2,3-dihydro-1H-pyrrolo[3,2-b]pyridin-1-yl)methanone]",–
> 7.00,> 7.00,"Cc1ccc2c(n1)C(C)(C)CN2C(=O)N1CCC2(CCN(Cc3ccccc3)CC2)CC1 [Example 57, (9-benzyl-3,9-diazaspiro[5.5]undecan-3-yl)(3,3,5-trimethyl-2,3-dihydro-1H-pyrrolo[3,2-b]pyridin-1-yl)methanone]",–
< 6.00,6.30 to 7.00,"Cc1ccc2c(n1)C(C)(C)CN2C(=O)NCC(c1ccccc1F)N(C)C (stereo not shown) [Example 19, N-(2-(dimethylamino)-2-(2-fluorophenyl)ethyl)-3,3,5-trimethyl-2,3-dihydro-1H-pyrrolo[3,2-b]pyridine-1-carboxamide]",–
> 7.00,6.30 to 7.00,"CN(Cc1ccc(C#N)cc1)C1CCN(C(=O)N2CC(C)(C)c3ncccc32)CC1 [Example 84, 4-(((1-(3,3-dimethyl-2,3-dihydro-1H-pyrrolo[3,2-b]pyridine-1-carbonyl)piperidin-4-yl)(methyl)amino)methyl)benzonitrile]",–
> 7.00,> 7.00,"Cc1ccc2c(n1)C(C)(C)CN2C(=O)[C@H]1CC[C@H](N(C)Cc2cccc(F)c2)CC1 [Example 169, ((1r,4r)-4-((3-fluorobenzyl)(methyl)amino)cyclohexyl)(3,3,5-trimethyl-2,3-dihydro-1H-pyrrolo[3,2-b]pyridin-1-yl)methanone]",–
> 7.00,> 7.00,"CN(Cc1ccccc1)[C@H]1CC[C@@H](C(=O)N2CC(C)(C)c3ncccc32)CC1 [Example 127, ((1s,4s)-4-(benzyl(methyl)amino)cyclohexyl)(3,3-dimethyl-2,3-dihydro-1H-pyrrolo[3,2-b]pyridin-1-yl)methanone]",–
> 7.00,< 6.00,"CN(Cc1ccc(F)c(C#N)c1)C1CCN(C(=O)N2CC(C)(C)c3ncccc32)CC1 [Example 45, 5-(((1-(3,3-dimethyl-2,3-dihydro-1H-pyrrolo[3,2-b]pyridine-1-carbonyl)piperidin-4-yl)(methyl)amino)methyl)-2-fluorobenzonitrile]",–
> 7.00,6.30 to 7.00,"Cc1ccc2c(n1)C(C)(C)CN2C(=O)N1CCC(N(C)Cc2ccc(F)cc2)CC1 [Example 114, (4-((4-fluorobenzyl)(methyl)amino)piperidin-1-yl)(3,3,5-trimethyl-2,3-dihydro-1H-pyrrolo[3,2-b]pyridin-1-yl)methanone]",–
–,> 7.00,"CC1(C)CN(C(=O)NC2CCN(Cc3ccccc3)CC2)c2ccc(C#N)nc21 [Example 30, N-(1-benzylpiperidin-4-yl)-5-cyano-3,3-dimethyl-2,3-dihydro-1H-pyrrolo[3,2-b]pyridine-1-carboxamide]",–
